Measured values published in patent US20240158369A1, “PYRIMIDINE COMPOUND AS WEE-1 INHIBITOR” (WIGEN BIOMEDICINE TECHNOLOGY (SHANGHAI) CO., LTD., priority 2021, published 2024).

Each molecule was assayed against recombinant protein Wee-1 (Homo sapiens (Human), UniProt P30291) (assay: HTRF assay for inhibiting enzymatic activity of recombinant protein Wee-1). Details: compounds up to 200 nM, read-out: (IC50) Inhibitory activity against recombinant protein Wee-1.
Type: biochemical
Description: The inhibitory effect of the compounds on the enzyme activity of recombinant protein Wee-1 was determined by HTRF. The procedures are as follows:
After DMSO or serially diluted compounds (up to 200 nM, 1:5 diluted) and recombinant proteins were co-incubated in a kinase buffer at 37° C. for 30 min before Fluorescein-PolyGAT and ATP were added, and the reaction was initiated by addition of a substrate. After incubation at room temperature for 90 min, an antibody and a detection solution were added, and after further incubation at room temperature for 60 min, fluorescence values were detected (excitation wavelength: 340 nm, emission wavelengths: 495 and 520 nm). The 520 nm/495 nm fluorescence intensity ratio value was calculated, and compared with that of the DMSO group, and then the inhibition percentages and IC50 values of the compounds were calculated.

recombinant protein Wee-1, sequence (P30291 whole entry): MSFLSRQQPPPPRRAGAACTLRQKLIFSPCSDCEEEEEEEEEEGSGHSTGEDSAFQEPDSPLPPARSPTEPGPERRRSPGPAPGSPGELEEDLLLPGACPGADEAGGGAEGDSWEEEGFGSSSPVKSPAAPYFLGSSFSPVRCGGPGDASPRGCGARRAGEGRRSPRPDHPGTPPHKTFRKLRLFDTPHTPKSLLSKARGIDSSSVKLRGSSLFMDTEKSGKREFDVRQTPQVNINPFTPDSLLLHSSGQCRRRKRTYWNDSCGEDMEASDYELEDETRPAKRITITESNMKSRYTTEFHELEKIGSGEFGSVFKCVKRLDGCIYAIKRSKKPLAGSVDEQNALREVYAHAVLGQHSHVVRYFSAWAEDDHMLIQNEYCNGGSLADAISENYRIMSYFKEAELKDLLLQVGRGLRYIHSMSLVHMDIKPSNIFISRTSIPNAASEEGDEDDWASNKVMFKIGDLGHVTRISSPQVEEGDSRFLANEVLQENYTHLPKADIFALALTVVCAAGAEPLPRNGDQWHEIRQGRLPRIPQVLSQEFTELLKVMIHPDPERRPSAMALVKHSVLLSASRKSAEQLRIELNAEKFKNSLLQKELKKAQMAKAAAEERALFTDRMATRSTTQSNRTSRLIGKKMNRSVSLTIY

Row | Compound | IC50
1 | CN1CCc2c(cc(Nc3ncc(C#N)c(Nc4ccc(F)c(N=S(C)(C)=O)n4)n3)cc2N2CCC2)C1 [Compound 96] | ≤ 10 nM
2 | CN1CCc2ccc(Nc3ncc(C#N)c(Nc4cc(N=S(C)(C)=O)ccn4)n3)cc2C1 [Compound 67] | ≤ 10 nM
3 | CN1CCc2ccc(Nc3ncc(C#N)c(Nc4cccc(N=S(C)(C)=O)n4)n3)cc2C1(C)C [Compound 104] | ≤ 10 nM
4 | CN(C)C1CCCc2ccc(Nc3ncc(C#N)c(Nc4cccc(N=S(C)(C)=O)n4)n3)cc2C1 (stereo not shown) [Compound 53] | ≤ 10 nM
5 | CN1CCc2c(CCN)cc(Nc3ncc(C#N)c(Nc4cccc(N=S(C)(C)=O)n4)n3)cc2C1 [Compound 135] | ≤ 10 nM
6 | CCN1CCc2ccc(Nc3ncc(C#N)c(Nc4cccc(N=S(C)(C)=O)n4)n3)cc2C1 [Compound 45] | ≤ 10 nM
7 | CCc1cc(Nc2ncc(C#N)c(Nc3cccc(N=S(C)(C)=O)n3)n2)cc2c1C(C)(C)CN(C)C2 [Compound 37] | ≤ 10 nM
8 | CC(C)c1cc(Nc2ncc(C#N)c(Nc3cccc(N=S(C)(C)=O)n3)n2)cc2c1C1(CC1)CN(C)C2 [Compound 33] | ≤ 10 nM
9 | CCc1cc(Nc2ncc(C#N)c(Nc3ccc(F)c(N=S(C)(C)=O)n3)n2)cc2c1CCN(C)C2 [Compound 89] | ≤ 10 nM
10 | CN1CCc2c(CCCN)cc(Nc3ncc(C#N)c(Nc4cccc(N=S(C)(C)=O)n4)n3)cc2C1 [Compound 136] | ≤ 10 nM
11 | CN1CCc2c(cc(Nc3ncc(C#N)c(Nc4ccc(F)c(N=S(C)(C)=O)n4)n3)cc2C2CCCC2)C1 [Compound 99] | ≤ 10 nM
12 | CCc1cc(Nc2ncc(C#N)c(Nc3cccc(N=S4(=O)CCCC4)n3)n2)cc2c1CCN(C)C2 [Compound 160] | ≤ 10 nM
13 | CN1CCc2c(cc(Nc3ncc(C#N)c(Nc4cccc(N=S(C)(C)=O)n4)n3)cc2C(C)(C)C)C1 [Compound 86] | ≤ 10 nM
14 | CN1CCc2c(cc(Nc3ncc(C#N)c(Nc4cncc(N=S(C)(C)=O)n4)n3)cc2C2CC2)C1 [Compound 138] | ≤ 10 nM
15 | CCc1cc(Nc2ncc(C#N)c(Nc3cccc(N=S(C)(C)=O)n3)n2)cc2c1CCN(CC)C2 [Compound 141] | ≤ 10 nM
16 | CN1CCc2c(Br)cc(Nc3ncc(C#N)c(Nc4cccc(N=S(C)(C)=O)n4)n3)cc2C1 [Compound 27] | ≤ 10 nM
17 | CN1CCCc2ccc(Nc3ncc(C#N)c(Nc4cccc(N=S(C)(C)=O)n4)n3)cc2C1 [Compound 54] | ≤ 10 nM
18 | CS(C)(=O)=Nc1cccc(Nc2nc(Nc3ccc4c(c3)CN(CCO)CC4)ncc2C#N)n1 [Compound 48] | ≤ 10 nM
19 | CCc1cc(Nc2ncc(C#N)c(Nc3cccc(N=S4(=O)CCC4)n3)n2)cc2c1CCN(C)C2 [Compound 159] | ≤ 10 nM
20 | CN1CCc2c(cc(Nc3ncc(C#N)c(Nc4ccnc(N=S(C)(C)=O)n4)n3)cc2C2CC2)C1 [Compound 140] | ≤ 10 nM
21 | Cc1cc(Nc2ncc(C#N)c(Nc3cc(F)cc(N=S(C)(C)=O)n3)n2)cc2c1CCN(C)C2 [Compound 74] | ≤ 10 nM
22 | COc1cc(Nc2ncc(C#N)c(Nc3cccc(N=S(C)(C)=O)n3)n2)cc2c1C(C)(C)CN(C)C2 [Compound 40] | ≤ 10 nM
23 | CN(C)CCN1CCc2ccc(Nc3ncc(C#N)c(Nc4cccc(N=S(C)(C)=O)n4)n3)cc2C1 [Compound 50] | ≤ 10 nM
24 | CN1CCc2c(cc(Nc3ncc(C#N)c(Nc4cccc(N=S(C)(C)=O)n4)n3)cc2N2CCC2)C1 [Compound 95] | ≤ 10 nM

Row | Compound | IC50
25 | CN1CCc2ccc(Nc3ncc(C#N)c(Nc4nccc(N=S(C)(C)=O)n4)n3)cc2C1 [Compound 70] | ≤ 10 nM
26 | CN(C)C1CC=Cc2ccc(Nc3ncc(C#N)c(Nc4cccc(N=S(C)(C)=O)n4)n3)cc2C1 (stereo not shown) [Compound 56] | ≤ 10 nM
27 | CN1CCc2c(cc(Nc3ncc(C#N)c(Nc4cccc(N=S(C)(C)=O)n4)n3)cc2N(C)C)C1 [Compound 44] | ≤ 10 nM
28 | CCc1cc(Nc2ncc(C#N)c(Nc3cccc(N=S(C)(=O)CC)n3)n2)cc2c1CCN(C)C2 (stereo not shown) [Compound 157] | ≤ 10 nM
29 | CN1CCc2c(cc(Nc3ncc(C#N)c(Nc4nccc(N=S(C)(C)=O)n4)n3)cc2C2CC2)C1 [Compound 139] | ≤ 10 nM
30 | Cc1cc(Nc2ncc(C#N)c(Nc3cccc(N=S(C)(C)=O)n3)n2)cc2c1C1(CC1)CN(C)C2 [Compound 30] | ≤ 10 nM
31 | CN1Cc2ccc(Nc3ncc(C#N)c(Nc4cccc(N=S(C)(C)=O)n4)n3)cc2C1 [Compound 59] | ≤ 10 nM
32 | CCc1cc(Nc2ncc(C#N)c(Nc3cccc(N=S(C)(C)=O)n3)n2)cc2c1CCNC2 [Compound 151] | ≤ 10 nM
33 | CN1CCc2ccc(Nc3ncc(C#N)c(Nc4cc5ccccc5c(N=S(C)(C)=O)n4)n3)cc2C1 [Compound 71] | ≤ 10 nM
34 | CN1CCc2ccc(Nc3ncc(C#N)c(Nc4nc(N=S(C)(C)=O)cc5ccccc45)n3)cc2C1 [Compound 72] | ≤ 10 nM
35 | CN1CCc2ccc(Nc3ncc(C#N)c(Nc4cccc(N=S(C)(C)=O)n4)n3)cc2C12CC2 [Compound 103] | ≤ 10 nM
36 | CN1CCc2c(cc(Nc3ncc(C#N)c(Nc4ccc(F)c(N=S(C)(C)=O)n4)n3)cc2C2=CCCC2)C1 [Compound 100] | ≤ 10 nM
37 | CN1CCc2ccc(Nc3ncc(C#N)c(Nc4nc(N=S(C)(C)=O)cc5[nH]ccc45)n3)cc2C1 [Compound 81] | ≤ 10 nM
38 | CN1CCc2c(CN)cc(Nc3ncc(C#N)c(Nc4cccc(N=S(C)(C)=O)n4)n3)cc2C1 [Compound 134] | ≤ 10 nM
39 | CN1CCOc2ccc(Nc3ncc(C#N)c(Nc4cccc(N=S(C)(C)=O)n4)n3)cc2C1 [Compound 57] | ≤ 10 nM
40 | CCCc1cc(Nc2ncc(C#N)c(Nc3cccc(N=S(C)(C)=O)n3)n2)cc2c1CCN(C)C2 [Compound 149] | ≤ 10 nM
41 | CN1CCc2ccc(Nc3ncc(C#N)c(Nc4nc(N=S(C)(C)=O)cc5c4CCN5)n3)cc2C1 [Compound 82] | ≤ 10 nM
42 | COc1cc(Nc2ncc(C#N)c(Nc3ccc(F)c(N=S(C)(C)=O)n3)n2)cc2c1CCN(C)C2 [Compound 90] | ≤ 10 nM
43 | CN1CCc2ccc(Nc3ncc(C#N)c(Nc4cncc(N=S(C)(C)=O)n4)n3)cc2C1 [Compound 68] | ≤ 10 nM
44 | CN1CCc2c(Cl)cc(Nc3ncc(C#N)c(Nc4cccc(N=S(C)(C)=O)n4)n3)cc2C1 [Compound 26] | ≤ 10 nM
45 | CN1CCc2c(cc(Nc3ncc(C#N)c(Nc4cccc(N=S(C)(C)=O)n4)n3)cc2C(F)F)C1 [Compound 21] | ≤ 10 nM
46 | Cc1cc(Nc2ncc(C#N)c(Nc3ccc(F)c(N=S(C)(C)=O)n3)n2)cc2c1CCN(C)C2 [Compound 73] | ≤ 10 nM
47 | CCc1cc(Nc2ncc(C#N)c(Nc3cncc(N=S(C)(C)=O)n3)n2)cc2c1CCN(C)C2 [Compound 142] | ≤ 10 nM
48 | CCOc1cc(Nc2ncc(C#N)c(Nc3ccc(F)c(N=S(C)(C)=O)n3)n2)cc2c1CCN(C)C2 [Compound 92] | ≤ 10 nM

Row | Compound | IC50
49 | COc1ccc(Nc2nc(Nc3ccc4c(c3)CN(C)CC4)ncc2C#N)nc1N=S(C)(C)=O [Compound 84] | ≤ 10 nM
50 | CN1CCc2c(CCO)cc(Nc3ncc(C#N)c(Nc4cccc(N=S(C)(C)=O)n4)n3)cc2C1 [Compound 132] | ≤ 10 nM
51 | CN1CCc2c(cc(Nc3ncc(C#N)c(Nc4ccc(F)c(N=S(C)(C)=O)n4)n3)cc2C2(C)CC2)C1 [Compound 102] | ≤ 10 nM
52 | CN1CCc2ccc(Nc3ncc(C#N)c(Nc4ccnc(N=S(C)(C)=O)c4)n3)cc2C1 [Compound 65] | ≤ 10 nM
53 | COc1cc(Nc2ncc(C#N)c(Nc3cccc(N=S(C)(C)=O)n3)n2)cc2c1C1(CC1)CN(C)C2 [Compound 34] | ≤ 10 nM
54 | Cc1cc(Nc2ncc(C#N)c(Nc3nc(N=S(C)(C)=O)ccc3F)n2)cc2c1CCN(C)C2 [Compound 75] | ≤ 10 nM
55 | CN1CCc2ccc(Nc3ncc(C#N)c(Nc4ccnc(N=S(C)(C)=O)n4)n3)cc2C1 [Compound 69] | ≤ 10 nM
56 | CCc1cc(Nc2ncc(C#N)c(Nc3ccnc(N=S(C)(C)=O)n3)n2)cc2c1CCN(C)C2 [Compound 144] | ≤ 10 nM
57 | CN1CCc2ccc(Nc3ncc(C#N)c(-n4ccc5c(N=S(C)(C)=O)cccc54)n3)cc2C1 [Compound 76] | ≤ 10 nM
58 | CN1CCc2c(CC3CCC3)cc(Nc3ncc(C#N)c(Nc4cccc(N=S(C)(C)=O)n4)n3)cc2C1 [Compound 125] | ≤ 10 nM
59 | Cc1cc(Nc2ncc(C#N)c(Nc3cccc(N=S(C)(C)=O)n3)n2)cc2c1C(C)(C)CN(C)C2 [Compound 36] | ≤ 10 nM
60 | CN1Cc2cc(Nc3ncc(C#N)c(Nc4cccc(N=S(C)(C)=O)n4)n3)cc(C3CC3)c2C2(CC2)C1 [Compound 32] | ≤ 10 nM
61 | CN1CCSc2ccc(Nc3ncc(C#N)c(Nc4cccc(N=S(C)(C)=O)n4)n3)cc2C1 [Compound 58] | ≤ 10 nM
62 | CN1Cc2cc(Nc3ncc(C#N)c(Nc4cccc(N=S(C)(C)=O)n4)n3)ccc2C(C)(C)C1 [Compound 35] | ≤ 10 nM
63 | CS(C)(=O)=Nc1cccc(Nc2nc(Nc3ccc4c(c3)CN(C3CC3)CC4)ncc2C#N)n1 [Compound 47] | ≤ 10 nM
64 | CCc1cc(Nc2ncc(C#N)c(Nc3nccc(N=S(C)(C)=O)n3)n2)cc2c1CCN(C)C2 [Compound 143] | ≤ 10 nM
65 | CN1CCc2c(cc(Nc3ncc(C#N)c(Nc4cccc(N=S(C)(C)=O)n4)n3)cc2-c2ccncc2)C1 [Compound 126] | ≤ 10 nM
66 | CN1CCc2ccc(Nc3ncc(C#N)c(Nc4cc5c(c(N=S(C)(C)=O)n4)CCC5)n3)cc2C1 [Compound 83] | ≤ 10 nM
67 | CCOc1cc(Nc2ncc(C#N)c(Nc3cccc(N=S(C)(C)=O)n3)n2)cc2c1CCN(C)C2 [Compound 23] | ≤ 10 nM
68 | CCc1cc(Nc2ncc(C#N)c(Nc3cccc(N=S(=O)(CC)CC)n3)n2)cc2c1CCN(C)C2 [Compound 158] | ≤ 10 nM
69 | CC(C)c1cc(Nc2ncc(C#N)c(Nc3cccc(N=S(C)(C)=O)n3)n2)cc2c1C(C)(C)CN(C)C2 [Compound 38] | ≤ 10 nM
70 | CN1CCc2c(cc(Nc3ncc(C#N)c(Nc4ccc(F)c(N=S(C)(C)=O)n4)n3)cc2C2CC2)C1 [Compound 94] | ≤ 10 nM
